Measurements from publication PMC9849758, “Chemically diverse activity-based probes with unexpected inhibitory mechanisms targeting trypsin-like serine proteases” (Frontiers in Chemistry, 2023).
“Also recorded” adds a separate entry of the source. Where a name gives a salt, the structure may show the parent alone. Read-outs that look alike come from different tables or passages of the source.

Key:
Thrombin = target: T1, Thrombin (Homo sapiens, UniProt P00734); test: Kinetic progress curves (kapp, K1, KI*, mechanism); assay type: biochemical; conditions: for Thrombin kapp: apparent second-order rate constant from progress curves; for Thrombin kapp / Ki: mean ± SD; for Thrombin mechanism of inhibition: defined by the progress curves: slow-binding (Rev.) or irreversible (Irrev.)
T1 construct: purchased R&D
Description: Because the compounds described in this paper were previously described as irreversible inhibitors, the IC50 value is inversely correlated with the second-order rate constant of inactivation. For a simple pseudo-first-order inactivation process, the activity after incubation with inhibitor (vi) varies with the inhibitor concentration (i), as described in the following equation: vi=v0·e^−kit where v0 is the activity in the absence of an inhibitor, k is the second-order rate constant of inactivation, and t is the time. The inactivation rate constant was determined from the time course of inhibition.
Kinetic assays were performed in the following manner. The inhibitor was mixed with the substrate, and the buffer solution with the enzyme was added at the time zero. The progress curves show the release of pNA or AMC as a function of time. Initially, no inhibitor is bound to the enzyme, and the tangent to the progress curve (dA/dt) is proportional to the free enzyme concentration. The free enzyme concentration decreases over time due to inhibitor binding kinetics, as described above. Progress curves were recorded in pseudo-first-order conditions ([I]0>>[E]0) and with less than 10% conversion of the substrate during the entire time course. In these conditions, dA/dt decreases exponentially with time. The progress curves were fitted with the integrated rate equation with GraFit7 to yield a value for kobs, a pseudo-first-order rate constant. At=Ao+vs∙t+vi−vs∙1−e^−kobs∙t/kobs where At is the absorbance at time t, A0 is the absorbance at time zero, vi is the initial rate and vs is the velocity at the steady-state.
The apparent second-order rate constant (kapp) was calculated from the slope of the linear part of the plot of kobs vs. the inhibitor concentration ([I]0). In the case of competition between the inhibitor and the substrate, kapp is smaller than the “real” second-order rate constant k discussed above because a certain fraction of the enzyme is present as an enzyme-substrate complex. kapp depends on the substrate concentration used in the experiment, as described by [Lambeir et al. (1996)].
The apparent equilibrium constants were obtained from the following equations, vi/vo=1/1+I/K1; vS/vo=1/1+I/KI* where vi is the initial rate, vs is the steady-state velocity and vo is the uninhibited initial rate.

β-tryptase = β-tryptase (Homo sapiens, UniProt P20231); test: Labeling and detection of recombinant proteases (SDS-PAGE blot, NeutrAvidin-HRP); assay type: binding; conditions: 1 µM ABP, 100 ng protease, 30 min 37°C, denaturing SDS-PAGE blot
Description: (§1) Recombinant proteases (100 ng) were labeled with 1 µM ABP in reaction buffer in a final volume of 40 µL for 30 min at 37°C. After the addition of 4X Laemmli buffer (Bio-Rad, GmbH) supplemented with Bond-Breaker Tris (2-CarboxyEthyl)Phosphine (TCEP) Solution (Thermo Scientific, United States), the samples were heated at 95°C for 5 min and loaded into 4%–20% Mini-Protean TGX precast gels (Bio-Rad, GmbH). After electrophoresis, the proteins were blotted onto nitrocellulose membranes using the Trans-Blot Transfer Turbo System (Bio-Rad). Membranes were incubated with NeutrAvidin-HRP (1:50,000), and bands were visualized with ECL Select Western Blot Detection Reagent (GE Healthcare Life Sciences) by chemiluminescence (Chemidoc XRS; Bio-Rad). The molecular weight of each band was determined with the Image Lab Software v5 (Bio-Rad).
(§2) To further characterize the newly synthesized compounds and their potential to be used as ABPs, nine desthiobiotin probes were used for the labeling and detection of recombinant proteases. The arginine (45b–46b) and the proline-lysine (58b) desthiobiotin probes were used as reference compounds. Whereas the benzyl guanidine (50b, 52b, 54b) and phenyl guanidine probes (55b–57b) were used to determine whether the mechanism of inhibition (reversible or irreversible) is an obstacle to visualize the proteases. Samples of human recombinant proteases (trypsin-3, β-tryptase, and CatG) were incubated with the different probes before electrophoresis and detection with NeutrAvidin-HRP on a Western blot. Figure 7A illustrates the ability of the desthiobiotin probes to indicate the presence of the corresponding trypsin-like enzyme. […] This effect can be explained due to the strong interactions between the active site of the protease and the probes. The high affinity and the slow off-rates were described in Table 5 by the equilibrium constants KI*. Assuming that there is an excess of inhibitor over enzyme, the free inhibitor concentration must be very low, lower than the KI*, in order for the complex to dissociate. Therefore, the high affinity complex E*I survives during the whole process of labeling, gel electrophoresis, and visualization.

CatG = target: T2, CatG (Homo sapiens, UniProt P08311); test: as above; assay type: binding; conditions: 1 µM ABP, 100 ng protease, 30 min 37°C, denaturing SDS-PAGE blot
T2 sequence (P08311 21-255): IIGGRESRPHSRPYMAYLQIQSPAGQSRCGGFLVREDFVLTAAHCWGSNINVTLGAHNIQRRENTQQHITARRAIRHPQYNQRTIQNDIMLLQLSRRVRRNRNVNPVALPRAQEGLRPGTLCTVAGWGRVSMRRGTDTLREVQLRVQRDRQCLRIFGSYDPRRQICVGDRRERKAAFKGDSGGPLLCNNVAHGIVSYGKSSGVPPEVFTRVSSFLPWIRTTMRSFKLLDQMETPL
Description: as §1, §2

Trypsin-3 = target: T3, Trypsin-3 (Homo sapiens, UniProt P35030); test: as above; assay type: binding; conditions: 1 µM ABP, 100 ng protease, 30 min 37°C, denaturing SDS-PAGE blot
T3 sequence (P35030 1-304): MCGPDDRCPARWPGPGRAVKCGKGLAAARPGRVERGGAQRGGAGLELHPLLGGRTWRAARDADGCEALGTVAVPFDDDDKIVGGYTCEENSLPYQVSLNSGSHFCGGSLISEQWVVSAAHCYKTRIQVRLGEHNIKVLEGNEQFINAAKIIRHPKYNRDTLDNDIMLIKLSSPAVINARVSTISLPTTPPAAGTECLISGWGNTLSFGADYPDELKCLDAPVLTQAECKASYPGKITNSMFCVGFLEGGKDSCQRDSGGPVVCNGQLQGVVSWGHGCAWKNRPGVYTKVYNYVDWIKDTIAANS
Description: as §1, §2

[1] = read-out: Thrombin K1, apparent equilibrium constant of the first step of slow-binding
[2] = read-out: Thrombin KI*, apparent equilibrium constant of the overall process
[3] = Thrombin KI*, apparent equilibrium constant of the overall process
[4] = Thrombin K1, apparent equilibrium constant of the first step of slow-binding

Sequence of β-tryptase (P20231 31-275): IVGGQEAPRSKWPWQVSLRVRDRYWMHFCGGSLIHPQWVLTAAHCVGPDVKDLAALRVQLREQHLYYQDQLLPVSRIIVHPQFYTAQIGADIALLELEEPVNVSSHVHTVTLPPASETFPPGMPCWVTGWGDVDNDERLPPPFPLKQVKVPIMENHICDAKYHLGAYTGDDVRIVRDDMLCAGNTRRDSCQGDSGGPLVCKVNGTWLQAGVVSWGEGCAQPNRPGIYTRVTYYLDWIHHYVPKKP

SMILES	Thrombin kapp (Thrombin)	Thrombin mechanism of inhibition (Thrombin)	Ki (Thrombin; [1]) [nM]	Ki (Thrombin; [2]) [nM]	labeling of recombinant β-tryptase (β-tryptase)	Ki (Thrombin; [3]) [nM]	labeling of recombinant CatG (CatG)	labeling of recombinant trypsin-3 (Trypsin-3)	Ki (Thrombin; [4]) [nM]
C[C@@H]1NC(=O)N[C@@H]1CCCCCC(=O)NCCOCCOCCOCCn1cc(CCCOC(=O)NC(CCCNC(=N)N)P(=O)(Oc2ccccc2)Oc2ccccc2)nn1 (some centres unmarked) [45b]	19 ± 2 M⁻¹ s⁻¹	Rev.	9970 ± 1000	1140 ± 110	not good ABP candidates				
C[C@@H]1NC(=O)N[C@@H]1CCCCCC(=O)NCCOCCOCCOCCn1cc(CCCOC(=O)NC(c2ccc(NC(=N)N)cc2)P(=O)(Oc2ccc(Cl)cc2)Oc2ccc(Cl)cc2)nn1 (some centres unmarked) [57b]					slightly better resolution				
C[C@@H]1NC(=O)N[C@@H]1CCCCCC(=O)NCCOCCOCCOCCn1cc(CCCOC(=O)NC(Cc2ccc(NC(=N)N)cc2)P(=O)(Oc2ccccc2)Oc2ccccc2)nn1 (stereo partly drawn) [50b, 3-(1-(18-((4R,5S)-5-methyl-2-oxoimidazolidin-4-yl)-13-oxo-3,6,9-trioxa-12-azaoctadecyl)-1H-1,2,3-triazol-4-yl)propyl (1-(diphenoxyphosphoryl)-2-(4-guanidinophenyl)ethyl)carbamate trifluoroacetate salt]	47 ± 5 M⁻¹ s⁻¹	Rev.			can label	1550 ± 250	can label	can label	
C[C@@H]1NC(=O)N[C@@H]1CCCCCC(=O)NCCOCCOCCOCCn1cc(CCCOC(=O)NC(CCCNC(=N)N)P(=O)(Oc2ccc(Cl)cc2)Oc2ccc(Cl)cc2)nn1 (some centres unmarked) [46b]	63 × 10^2 ± 290 M^−1 s^−1	Rev.	950 ± 200	70 ± 9	not good ABP candidates				
C[C@@H]1NC(=O)N[C@@H]1CCCCCC(=O)NCCOCCOCCOCCn1cc(CCCOC(=O)NC(Cc2ccc(NC(=N)N)cc2)P(=O)(Oc2ccc(Cl)cc2)Oc2ccc(Cl)cc2)nn1 (some centres unmarked) [54b]		* ^d Rev.			can label; also recorded: slightly better resolution	60 ± 6	can label	can label	
C#CCCCOC(=O)NC(Cc1ccc(NC(=N)N)cc1)P(=O)(Oc1ccc(Cl)cc1)Oc1ccc(Cl)cc1 (centres unmarked) [36b]	251 ± 16 M⁻¹ s⁻¹	Rev.				30 ± 2			9030 ± 500
C#CCCCOC(=O)NC(CCCNC(=N)N)P(=O)(Oc1ccccc1)Oc1ccccc1 (centres unmarked) [32b]	64 ± 8 M⁻¹ s⁻¹	Rev.				450 ± 30			22600 ± 5000
C#CCCCOC(=O)NC(Cc1ccc(NC(=N)N)cc1)P(=O)(Oc1ccc(NC(C)=O)cc1)Oc1ccc(NC(C)=O)cc1 (centres unmarked) [35b]	128 ± 5 M⁻¹ s⁻¹	Rev.				630 ± 40			32700 ± 4000
C#CCCCOC(=O)NC(CCCNC(=N)N)P(=O)(Oc1ccc(Cl)cc1)Oc1ccc(Cl)cc1 (centres unmarked) [33b]	11 × 10^2 ± 42 M^−1 s^−1	reversible inhibition and Rev.				280 ± 40			4130 ± 700
C#CCCCOC(=O)NC(C1CCN(C(=N)N)CC1)P(=O)(Oc1ccccc1)Oc1ccccc1 (centres unmarked) [41b]	41 × 10^2 ± 38 M^−1 s^−1	irreversible inhibition; also recorded: Irrev							
C#CCCCOC(=O)NC(Cc1ccc(NC(=N)N)cc1)P(=O)(Oc1ccccc1)Oc1ccccc1 (centres unmarked) [34b]	17 ± 1 M⁻¹ s⁻¹	Rev.				4930 ± 510			134000 ± 26000
CC(=O)Nc1ccc(OP(=O)(Oc2ccc(NC(C)=O)cc2)C(Cc2ccc(NC(=N)N)cc2)NC(=O)OCCCc2cn(CCOCCOCCOCCNC(=O)CCCCC[C@H]3NC(=O)N[C@H]3C)nn2)cc1 (some centres unmarked) [52b]	49 ± 5 M⁻¹ s⁻¹	Rev.			can label	620 ± 80	can label	can label	
